Data reported in ChEMBL document CHEMBL1143846, “Clinical pharmacodynamics of meropenem in patients with lower respiratory tract infections” (Antimicrob Agents Chemother, 2007).
Converted amounts (≈) assume the structure as drawn.

Legend:
Streptococcus pneumoniae = assay: Antimicrobial activity against Streptococcus pneumoniae; format: functional
Staphylococcus aureus = assay: Antimicrobial activity against methicillin-susceptible Staphylococcus aureus; format: functional
Haemophilus influenzae = assay: Antimicrobial activity against Haemophilus influenzae; format: functional
Klebsiella pneumoniae = assay: Antimicrobial activity against Klebsiella pneumoniae; format: functional
Pseudomonas aeruginosa = assay: Antimicrobial activity against Pseudomonas aeruginosa; format: functional
Homo sapiens [1] = organism: Homo sapiens; assay: fCmax in patient with lower respiratory tract infection; format: ADME, organism-based; settings: in vivo
Homo sapiens [2] = organism: Homo sapiens; assay: fCmin in patient with lower respiratory tract infection; format: ADME, organism-based; settings: in vivo
Homo sapiens [3] = organism: Homo sapiens; assay: fAUC in patient with lower respiratory tract infection; format: ADME, organism-based; settings: in vivo
Homo sapiens [4] = organism: Homo sapiens; assay: ft>MIC in patient with lower respiratory tract infection; format: ADME, organism-based; settings: in vivo
[5] = Ratio of fCmax to MIC in patient with lower respiratory tract infection; format: ADME; settings: human
[6] = Ratio of fCmin to MIC in patient with lower respiratory tract infection; format: ADME; settings: human
[7] = Ratio of fAUC to MIC in patient with lower respiratory tract infection; format: ADME; settings: human

C[C@@H](O)[C@H]1C(=O)N2C(C(=O)O)=C(S[C@@H]3CN[C@H](C(=O)N(C)C)C3)[C@H](C)[C@H]12 [MEROPENEM]
MIC (Streptococcus pneumoniae): 0.06 µg/mL (≈ 0.156 µM) | MIC (Staphylococcus aureus): 0.06 µg/mL (≈ 0.156 µM) | MIC (Haemophilus influenzae): 0.06 µg/mL (≈ 0.156 µM) | MIC (Klebsiella pneumoniae): 0.06 µg/mL (≈ 0.156 µM) | MIC (Pseudomonas aeruginosa): 0.06 µg/mL (≈ 0.156 µM) | fCmax (Homo sapiens [1]): 32.27 µg/mL | fCmin (Homo sapiens [2]): 0.91 µg/mL | fAUC (Homo sapiens [3]): 157.43 µg·h/mL | fT>MIC (Homo sapiens [4]): 91% | Ratio [5]: 1427.66 | Ratio [6]: 34.24 | Ratio [7]: 6683.38
